Measurements reported in PMC9610285 (Pharmaceutics, 2022).
Read-outs that look alike come from different tables or passages of the source.

Details: 1 mg single oral dose, fasting
Method: The data used in this work were obtained from four bioequivalence clinical trials conducted at the Clinical Trials Unit of the Hospital Universitario de La Princesa (UECHUP) (EUDRA-CT IDs: 2012-004433-17, 2013-002159-14, 2014-001123-77 and 2021-000315-23). […] The reference formulation (R) in all cases was Azilect® 1 mg tablets (TEVA Pharmaceuticals Europe B.V.), which was compared against different test formulations (T), all of them 1 mg tablets, except in clinical trial 3, whose test formulation was orodispersible 1 mg. The four bioequivalence trials had two periods and two sequences (TR and RT). In the first period, the volunteers randomly were administered one of the two formulations and, in the following period, after a 7-day washout period, the opposite formulation. All of them were reviewed and approved by Independent Ethics Board (IEB) of the Hospital Universitario de La Princesa, and by the Spanish Drug Agency (AEMPS). In addition, they were performed in accordance with the guidelines of the International Conference on Harmonization for Good Clinical Practice (ICH-GCP), current Spanish legislation and the Revised Declaration of Helsinki. The pharmacogenetic study (SFC-FG-2020-1) was likewise approved by the IEB of Hospital Universitario de La Princesa (registry number 4176, 9 July 2020).
In each period, the drug was administered under fasting conditions, which were maintained until 5 h after drug administration. Each subject provided 20 or 21 blood samples (depending on the clinical trial) that were extracted by BD Vacutainer® vacuum system with EDTA K2 tubes for analysis at different times between 0 h (before receiving the drug) and up to 12 h after drug intake. […] A high-performance liquid chromatography coupled to triple quadrupole mass spectrometry (HPLC-MS/MS) analytical method was used. The latter was validated according to European regulations for bioequivalence assessment, with a lower limit of quantification (LLOQ) of 10 pg/mL and a calibration range of 10–10,000 pg/mL.
Pharmacokinetic parameters were calculated with WinNonlin Professional (Scientific Consulting, Inc., Cary, NC, USA) following a non-compartmental model. The area under the curve (AUC0-t), was obtained by the trapezoidal method. The extrapolation to infinity (AUC0-∞) was determined by the sum of two partial AUCs: AUCt-∞ calculated by the ratio Ct/k, where Ct is the last detectable concentration and k the elimination slope; plus AUC0-t. Cmax and tmax were directly obtained from the plasma time-concentration curves. t1/2 was calculated as Ln2/k. Plasma clearance adjusted for bioavailability (Cl/F) was calculated as dose/AUC. Finally, the volume of distribution adjusted for bioavailability (Vd/F) was calculated by dividing Cl/F by k.
The SPSS software (v23.0, SPSS Inc., Chicago, IL, USA) was used for statistical analyses. AUC0-∞, and Cmax were divided by the dose/weight (DW) ratio to correct sex-related variability related to a varying weight. For the same purpose, Vd/F and Cl/F were divided by weight. With the purpose of normalizing their distributions, all pharmacokinetic parameters were logarithmically transformed for statistical analysis. Initially, a univariate analysis was conducted of the demographic characteristics according to sex and ethnicity, and of the pharmacokinetic parameters or ADR incidence based on sex, biogeographical group (hereinafter, “ethnicity”), genotypes and phenotypes. T-tests were used for the comparison of means for variables with two categories and ANOVA tests for variables with three or more categories, followed by a Bonferroni post-hoc. The Shapiro–Wilk test was used to address the normality of demographic characteristics. For those not following a normal distribution, the nonparametric Kruskal–Wallis test was used.

[1] = CYP1A2 *1N/*1K, *1N/*1L, *1N/*1L and *1N/*1G merged, n=4

## C#CCN[C@@H]1CCc2ccccc21 [rasagiline, Rasagiline]
  lower tmax value, ABCC2 rs2273697 A/A vs G allele carriers: approximately 50%
ABCB1 rs1045642 A/A, n=23
  AUC0-∞/DW: 275.48 ± 59.65 ng·kg·h/mL/mg
  Cmax/DW: 438.76 ± 152.32 ng·kg/mL/mg
  t1/2: 2.58 ± 0.63 h
  tmax: 0.50 ± 0.21 h
ABCB1 rs1045642 G/A, n=61
  AUC0-∞/DW: 273.00 ± 83.60 ng·kg·h/mL/mg
  Cmax/DW: 426.48 ± 179.87 ng·kg/mL/mg
  t1/2: 2.63 ± 1.04 h
  tmax: 0.51 ± 0.27 h
ABCB1 rs1045642 G/G, n=34
  AUC0-∞/DW: 244.10 ± 63.87 (pm = 0.012) h*ng*kg/mL*mg
  Cmax/DW: 359.70 ± 127.40 ng·kg/mL/mg
  t1/2: 2.83 ± 0.73 h
  tmax: 0.47 ± 0.19 h
ABCC2 rs2273697 A/A, n=3
  AUC0-∞/DW: 350.15 ± 86.34 ng·kg·h/mL/mg
  Cmax/DW: 579.28 ± 133.19 ng·kg/mL/mg
  t1/2: 3.01 ± 0.49 h
  tmax: 0.22 ± 0.09 (pu = 0.005, pm = 0.001) ^& h
ABCC2 rs2273697 G/A, n=42
  AUC0-∞/DW: 264.50 ± 74.33 ng·kg·h/mL/mg
  Cmax/DW: 411.51 ± 152.39 ng·kg/mL/mg
  t1/2: 2.59 ± 0.90 h
  tmax: 0.48 ± 0.19 h
ABCC2 rs2273697 G/G, n=73
  AUC0-∞/DW: 262.04 ± 73.57 ng·kg·h/mL/mg
  Cmax/DW: 401.58 ± 167.92 ng·kg/mL/mg
  t1/2: 2.71 ± 0.89 h
  tmax: 0.51 ± 0.26 h
COMT rs4680 A/A, n=26
  AUC0-∞/DW: 236.37 ± 68.34 (pu = 0.018, pm = 0.008) h*ng*kg/mL*mg
  Cmax/DW: 355.69 ± 168.61 (pu = 0.012, pm = 0.035) ng*kg/mL*mg
  t1/2: 2.74 ± 1.00 h
  tmax: 0.50 ± 0.22 h
COMT rs4680 G/A, n=56
  AUC0-∞/DW: 285.72 ± 81.43 ng·kg·h/mL/mg
  Cmax/DW: 450.03 ± 166.19 ng·kg/mL/mg
  t1/2: 2.71 ± 0.95 h
  tmax: 0.47 ± 0.18 h
COMT rs4680 G/G, n=36
  AUC0-∞/DW: 253.96 ± 59.13 ng·kg·h/mL/mg
  Cmax/DW: 385.75 ± 140.56 ng·kg/mL/mg
  t1/2: 2.58 ± 0.68 h
  tmax: 0.52 ± 0.32 h
CYP1A2 *1B/*1B, n=6
  AUC0-∞/DW: 226.81 ± 52.00 ng·kg·h/mL/mg
  Cmax/DW: 411.84 ± 85.38 ng·kg/mL/mg
  t1/2: 1.87 ± 0.6 h
  tmax: 0.42 ± 0.18 h
CYP1A2 *1B/*1F, n=36
  AUC0-∞/DW: 265.27 ± 80.68 ng·kg·h/mL/mg
  Cmax/DW: 426.5 ± 183.44 ng·kg/mL/mg
  t1/2: 2.66 ± 0.9 h
  tmax: 0.44 ± 0.19 h
CYP1A2 *1B/*1L, n=4
  AUC0-∞/DW: 275.25 ± 108.77 ng·kg·h/mL/mg
  Cmax/DW: 392.87 ± 133.43 ng·kg/mL/mg
  t1/2: 3.32 ± 1.62 h
  tmax: 0.46 ± 0.16 h
CYP1A2 *1B/*1N, n=5
  AUC0-∞/DW: 256.33 ± 116.11 ng·kg·h/mL/mg
  Cmax/DW: 327.66 ± 320.93 ng·kg/mL/mg
  t1/2: 3 ± 0.78 h
  tmax: 0.6 ± 0.28 h
CYP1A2 *1F/*1F, n=38
  AUC0-∞/DW: 263.28 ± 60.08 ng·kg·h/mL/mg
  Cmax/DW: 403.23 ± 139.11 ng·kg/mL/mg
  t1/2: 2.69 ± 0.82 h
  tmax: 0.51 ± 0.21 h
CYP1A2 *1J/*1N, n=5
  AUC0-∞/DW: 275.39 ± 91.37 ng·kg·h/mL/mg
  Cmax/DW: 435.74 ± 117.78 ng·kg/mL/mg
  t1/2: 2.15 ± 0.83 h
  tmax: 0.43 ± 0.09 h
CYP1A2 *1L/*1F, n=11
  AUC0-∞/DW: 285.81 ± 77.84 ng·kg·h/mL/mg
  Cmax/DW: 389.59 ± 138.34 ng·kg/mL/mg
  t1/2: 2.55 ± 1.07 h
  tmax: 0.64 ± 0.48 h
CYP1A2 *1L/*1L, n=6
  AUC0-∞/DW: 301.28 ± 89.3 ng·kg·h/mL/mg
  Cmax/DW: 518.16 ± 158.15 ng·kg/mL/mg
  t1/2: 3.06 ± 0.38 h
  tmax: 0.53 ± 0.17 h
[1]
  AUC0-∞/DW: 220.53 ± 87.92 ng·kg·h/mL/mg
  Cmax/DW: 355.79 ± 242.1 ng·kg/mL/mg
  t1/2: 2.94 ± 0.69 h
  tmax: 0.5 ± 0.14 h
CYP2C19 µM, n=3
  AUC0-∞/DW: 205.53 ± 82.32 ng·kg·h/mL/mg
  Cmax/DW: 347.93 ± 233.78 ng·kg/mL/mg
  t1/2: 1.75 ± 0.67 h
